Entries after “also recorded” stand apart in the source; their conditions may differ. Like-named read-outs stand apart in the source and are kept apart here.
Assays:
BV2 cells [1] = assay: LPS induced nitrite release in BV2 cells (Griess assay); format: cell-based, mice; settings: Example 1; LPS 1 μg/ml, 48 hours, vs LPS alone
Procedure: The immortalized rat mesencephalic dopaminergic cells (N27 cells) were grown in RPMI 1640 medium containing 10% Fetal Bovine Serum (FBS), 2 mM L-glutamine, 50 U Penicillin and 50 μg/ml Streptomycin [22]. Mice microglial cells (BV2 cells) were grown in RPMI 1640 medium containing 10% Heat Inactivated Fetal Bovine Serum (HI-FBS). Cells were maintained in a humidified atmosphere of 5% CO2 at 37° C. until they were 60-70% confluent.
BV2 (Mice Glial Cells) cells were treated with LPS at a concentration of 1 μg/ml in the presence or absence of test compounds PD180970 or AGK-2 at a concentrating ranging from 0.1 nM-[…] and incubated for 48 hours at 37° C. at 5% CO2. Griess assay was used to measure nitrite released in order to investigate the anti-inflammatory potential of the compounds. Untreated BV2 cells was used as blank, 0.1% DMSO in media was used as vehicle. LPS (1 μg/ml) was used as control for nitrite release.

N27 cells [2] = assay: Toxicity to N27 cells induced by conditioned media from LPS activated BV2 cells (MTS assay); format: cell-based, rat; settings: Example 3, FIG. 3, LPS 1 μg/ml, 30 hours
BV2 cells [3] = assay: LPS induced nitrite release by BV2 in N27-BV2 co-culture (Griess assay); format: cell-based, mice; settings: LPS 1 μg/ml, 30 hours
HEK-Blue™ TLR2 cells = assay: nF-κB induced SEAP activity in HEK-Blue TLR2 cells; format: cell-based; settings: Pam3CSK4 10 ng/ml, compound 1 nM-100 μM, 12 hours
Procedure: (§1) Hek-Blue TLR-2, TLR-3 and TLR-4 Cells were obtained from InvivoGen (San Diego, Calif.). Culture treatment and assay was performed as per the manufacturers recommended protocol. Cells were treated and incubated for 12 hours, followed by collection of OD values at 620 nm.
(§2) HEK-Blue™ TLR4 cells were treated with LPS and HEK-Blue™ TLR2 were treated with Pam3CSK4 at a concentration of 10 ng/ml for 12 hours in the presence or absence of compounds (PD180970 or AGK-2) at a range of 1 nM-100 μM, and assayed for SEAP activity. LPS ([…]) was used as control for SEAP activity. nF-κB induced SEAP activity was quantified using HEK-Blue™ Detection at 620 nm.

IL-6 = assay: LPS induced IL-6 secretion by BV2 in N27-BV2 co-culture (Luminex multiplexing assay); format: cell-based, mice; settings: Example 4.3; LPS 1 μg/ml, compound 1 μM, 30 hours
Procedure: (§3) Luminex multiplexing assay was performed to determine the concentration of IL-6 and MCP-1 released. LPS (1 μg/ml) was used as control for IL-6 release or MCP-1 release.

N27 cells [4] = settings: 30 hours; for neuroprotective effect on N27 cell survival: Example 2.1; for neuroprotective effect on N27 cell survival / neuronal survival as compared to LPS alone / N27 cell survival (protective effect) vs LPS alone / protective effect in N27 cells: LPS 1 μg/ml; for neuronal survival as compared to LPS alone: Example 2.2; for effect of compound alone on the cells, survival, nitrite release or morphology: compound 1 μM without LPS; for protective effect in N27 cells: Example 5
Procedure: The survival of the N27 cells was then measured using MTS Assay.
N27 (Rat Dopaminergic cells) and BV2 (Mice Glial Cells) cells were co-cultured in Corning HTS Transwell Plates in RPMI Complete media supplemented with 10% HI-FBS, N27 in the lower well of the 24 well plates and BV2 in the 0.4 μm porous permeable support inserted on top of the 24 well for 24 hours at 37° C., 5% CO2. BV2 cells were treated with 1 μg/ml LPS in the presence and absence of 10 μM of CCND-01, CCND-02, CCND-03 and CCND-04, and 10 mM of NAC for 30 hours at 37° C., 5% CO2. The survival of N27 cells was then measured by performing MTS Assay and taking readings at 490 nm after 30 mins of incubation.
MTS assay was performed to determine the percentage N27 survival.

N27 cells [5] = assay: Hydrogen peroxide induced neurotoxicity in N27 cells (MTS assay); format: cell-based, rat; settings: 75 μM hydrogen peroxide, compound 0.1 nM-10 μM, 8 hours
Procedure: Cells were co-treated with 75 μM H2O2 in the presence and absence of compounds for 8 hours. Treatments were made in complete RPMI medium containing 2% FBS.
N27 cells were treated with 75 μM hydrogen peroxide in the presence and absence of compounds PD180970 or AGK2 in a concentration range of 0.1 nM-10 μM for 8 hours in 96 well plates. MTS assay was used to check the cell viability in order to investigate the neuroprotective potential of the compounds. Cells with untreated media was used as blank, and cells with media containing 0.1% DMSO (vehicle or solvent for the compounds) was used as vehicle. Hydrogen peroxide (75 μM) treated N27 cells was used as control for.

HEK-Blue™ TLR4 cells = assay: nF-κB induced SEAP activity in HEK-Blue TLR4 cells; format: cell-based; settings: LPS 10 ng/ml, compound 1 nM-100 μM, 12 hours
Procedure: as §1, §2

N27 cells [6] = assay: MPP+ induced neurotoxicity in N27 cells (MTS assay); format: cell-based, rat; settings: 300 μM MPP+, compound 0.1 nM-10 μM, 24 hours
Procedure: Cells were co-treated with 300 μM MPP^+ in the presence and absence of compounds for 24 hours. Treatments were made in complete RPMI medium containing 2% FBS.
N27 cells were treated with 300 μM of MPP^+ in the presence and absence of compounds (PD180970 or AGK-2) in a concentration range of 0.1 nM-10 μM and incubated for 24 hours. MPP^+ (300 μM) treated N27 cells was used as control. MTS assay was used to check the cell viability in order to investigate the neuroprotective potential of the compounds. None of the compounds could rescue MPP^+ treated dopaminergic N27 cells.

MCP-1 = assay: LPS induced MCP-1 secretion by BV2 in N27-BV2 co-culture (Luminex multiplexing assay); format: cell-based, mice; settings: Example 4.3; LPS 1 μg/ml, compound 1 μM, 30 hours
Procedure: as §3

ERα = target: T1, ERα (Homo sapiens, UniProt P03372); settings: at concentrations below 10 μM; cited from earlier work
T1 sequence (P03372 1-595): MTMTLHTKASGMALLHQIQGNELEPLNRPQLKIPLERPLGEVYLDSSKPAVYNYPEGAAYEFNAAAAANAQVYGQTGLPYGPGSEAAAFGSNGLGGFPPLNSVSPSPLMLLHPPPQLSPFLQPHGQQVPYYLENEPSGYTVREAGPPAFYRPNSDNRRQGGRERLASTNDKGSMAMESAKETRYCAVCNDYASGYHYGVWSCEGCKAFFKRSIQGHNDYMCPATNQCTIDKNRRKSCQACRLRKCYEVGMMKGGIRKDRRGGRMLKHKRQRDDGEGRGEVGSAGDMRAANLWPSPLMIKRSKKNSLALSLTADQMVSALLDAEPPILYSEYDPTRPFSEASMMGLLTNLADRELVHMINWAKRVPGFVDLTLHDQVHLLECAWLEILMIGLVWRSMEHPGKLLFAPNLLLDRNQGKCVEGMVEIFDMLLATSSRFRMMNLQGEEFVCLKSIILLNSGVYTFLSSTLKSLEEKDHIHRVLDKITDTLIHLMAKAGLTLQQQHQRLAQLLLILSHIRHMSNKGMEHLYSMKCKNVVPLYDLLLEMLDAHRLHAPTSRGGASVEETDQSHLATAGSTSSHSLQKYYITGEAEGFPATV

ERRγ = target: T2, ERRγ (Homo sapiens, UniProt P62508); settings: at concentrations below 10 μM; cited from earlier work
T2 sequence (P62508 1-458): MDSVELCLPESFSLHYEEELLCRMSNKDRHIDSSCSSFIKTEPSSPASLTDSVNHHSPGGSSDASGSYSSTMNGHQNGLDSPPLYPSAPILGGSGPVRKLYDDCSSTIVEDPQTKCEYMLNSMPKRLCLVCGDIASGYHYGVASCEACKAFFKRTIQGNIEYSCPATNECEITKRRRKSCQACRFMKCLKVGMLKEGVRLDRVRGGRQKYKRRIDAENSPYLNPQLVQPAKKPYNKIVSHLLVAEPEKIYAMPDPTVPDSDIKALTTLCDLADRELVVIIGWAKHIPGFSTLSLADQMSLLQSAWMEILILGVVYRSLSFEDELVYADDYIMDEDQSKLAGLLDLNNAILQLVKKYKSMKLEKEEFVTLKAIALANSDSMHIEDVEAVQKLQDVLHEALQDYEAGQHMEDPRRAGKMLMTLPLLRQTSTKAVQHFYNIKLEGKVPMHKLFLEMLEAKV

SMILES: N#C/C(=C\c1ccc(-c2cc(Cl)ccc2Cl)o1)C(=O)Nc1cccc2ncccc12 [AGK-2]
- levels of nitrite released by LPS treated BV2 cells (BV2 cells [1]): significant reduction in levels of nitrite
- neuroprotective effect in N27 cells (N27 cells [2]; compound 10 μM): significant neuroprotective effect
- level of nitrite released by LPS induced BV2 cells (BV2 cells [3]; Example 2.2, compound 1 μM): significant reduction in level of nitrite
- level of nitrite released by LPS induced BV2 cells (BV2 cells [3]; Example 4, compound 1 μM): significant decrease in nitrite level; also recorded: significant reduction in level of nitrite
- nF-κB induced SEAP activity (HEK-Blue™ TLR2 cells): not in HEK-Blue™ TLR2 cells
- level of IL-6 released by LPS induced BV2 cells (IL-6): significant reduction in level of IL-6
- neuroprotective effect on N27 cell survival (N27 cells [4]; compound 10 μM): significant neuroprotective effect
- neuronal survival as compared to LPS alone (N27 cells [4]; compound 1 μM): significant increase in neuronal survival
- N27 cell survival (protective effect) vs LPS alone (N27 cells [4]; Example 4, compound 1 μM): significant protective effect; also recorded: significant increase in neuronal survival
- effect of compound alone on the cells, survival, nitrite release or morphology (N27 cells [4]; Example 4): no effect
- protective effect in N27 cells (N27 cells [4]; compound 10 μM): significant protective effect
- neuroprotective effect on H2O2 induced toxicity (N27 cells [5]): no significant neuroprotective effect
- nF-κB induced SEAP activity (HEK-Blue™ TLR4 cells): significant inhibitory effect
- neuroprotective effect on MPP+ induced toxicity (N27 cells [6]): no significant neuroprotective effect
- level of MCP-1 released by LPS induced BV2 cells (MCP-1): significant reduction in levels of IL-6 and MCP-1

SMILES: COc1cc(/C=C(\C#N)C(=O)Nc2nnc(C(F)(F)F)s2)ccc1OCc1ccc(C(F)(F)F)cc1C(F)(F)F [CCND-04]
- antagonist activity on ERα (ERα): no significant antagonist activity
- antagonist activity on ERRγ (ERRγ): no significant antagonist activity

SMILES: Cc1ccc(NC(=O)c2ccc(CN3CCN(C)CC3)cc2)cc1Nc1nccc(-c2cccnc2)n1 [Imatinib]
- protective effect in N27 cells (N27 cells [4]; compound 10 μM): significant protective effect

SMILES: CC(=O)N[C@@H](CS)C(=O)O [NAC, N-acetylcysteine]
- neuroprotective effect in N27 cells (N27 cells [2]; NAC 1 mM): significant neuroprotective effect
- level of nitrite released by LPS induced BV2 cells (BV2 cells [3]; Example 2.2, NAC 10 mM): significant reduction in level of nitrite
- neuroprotective effect on N27 cell survival (N27 cells [4]; NAC 10 mM): inhibit neuronal cell death
- neuronal survival as compared to LPS alone (N27 cells [4]; NAC 10 mM): significant increase in neuronal survival
- N27 cell survival (protective effect) vs LPS alone (N27 cells [4]; Example 4.1, NAC 10 μM): significant protective effect
- protective effect in N27 cells (N27 cells [4]; compound 10 μM): neuroprotective role

SMILES: Cc1cn(-c2cc(NC(=O)c3ccc(C)c(Nc4nccc(-c5cccnc5)n4)c3)cc(C(F)(F)F)c2)cn1 [Nilotinib]
- protective effect in N27 cells (N27 cells [4]; compound 10 μM): significant protective effect

SMILES: Cc1cc(Nc2ncc3cc(-c4c(Cl)cccc4Cl)c(=O)n(C)c3n2)ccc1F [PD180970]
- levels of nitrite released by LPS treated BV2 cells (BV2 cells [1]): significant reduction in levels of nitrite
- neuroprotective effect in N27 cells (N27 cells [2]; compound 10 μM): significant neuroprotective effect
- level of nitrite released by LPS induced BV2 cells (BV2 cells [3]; Example 2.2, compound 1 μM): significant reduction in level of nitrite
- level of nitrite released by LPS induced BV2 cells (BV2 cells [3]; Example 4, compound 1 μM): significant decrease in nitrite level; also recorded: significant reduction in level of nitrite
- nF-κB induced SEAP activity (HEK-Blue™ TLR2 cells): not in HEK-Blue™ TLR2 cells
- level of IL-6 released by LPS induced BV2 cells (IL-6): significant reduction in level of IL-6
- neuroprotective effect on N27 cell survival (N27 cells [4]; compound 10 μM): significant neuroprotective effect
- neuronal survival as compared to LPS alone (N27 cells [4]; compound 1 μM): significant increase in neuronal survival
- N27 cell survival (protective effect) vs LPS alone (N27 cells [4]; Example 4, compound 1 μM): significant protective effect; also recorded: significant increase in neuronal survival
- effect of compound alone on the cells, survival, nitrite release or morphology (N27 cells [4]; Example 4): no effect
- protective effect in N27 cells (N27 cells [4]; compound 10 μM): significant protective effect
- neuroprotective effect on H2O2 induced toxicity (N27 cells [5]): no significant neuroprotective effect
- nF-κB induced SEAP activity (HEK-Blue™ TLR4 cells): significant inhibitory effect
- neuroprotective effect on MPP+ induced toxicity (N27 cells [6]): no significant neuroprotective effect
- level of MCP-1 released by LPS induced BV2 cells (MCP-1): significant reduction in levels of IL-6 and MCP-1

Source: patent US11324747B2, “Methods and compositions for managing neuroinflammation and neurodegeneration” (CENTRE FOR CELLULAR AND MOLECULAR PLATFORMS, priority 2016, dated 2022)
